The record followed here is patent US5733913A, “6-Aryl pyrido[2,3-d] pyrimidines and naphthyridines for inhibiting protein tyrosine kinase mediated cellular proliferation” (priority 1995, dated 1998).

For assay [1], the target named is T1, mouse PDGF-β receptor tyrosine kinase (Mus musculus, UniProt P05622).
T1 construct: a fragment of DNA that codes for the intracellular tyrosine kinase domain; made in house; host or cells: Sf9 insect cells (baculovirus), cell lysate
The assay is described as follows: PDGF receptor tyrosine kinase assay. The note with it: for IC50: read-out: Inhibition of Protein Tyrosine Kinases, PDGF, IC50; for inhibition at 50 µM: read-out: Inhibition of Protein Tyrosine Kinases, PDGF, % Inhibition. Format: biochemical. The procedure, abridged:
(§1)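 Intracellular kinase domains expressed in baculovirus-infected SF9 cells; crude lysate used as enzyme. Inhibitor preincubated 10 min at 25 °C with lysate in pH 7.0 Hepes buffer with 10 mM MnCl2 and poly(Glu-Tyr) 4:1, then γ-32P-ATP (50 μM ATP) added for 10 min at 25 °C. TCA-precipitated 32P on filters counted, no-enzyme background subtracted.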

In assay [2] the target is T2, human FGF-1 (flg) receptor tyrosine kinase (Homo sapiens, UniProt P11362).
T2 construct: a fragment of DNA that codes for the intracellular tyrosine kinase domain; made in house; host or cells: Sf9 insect cells (baculovirus), cell lysate
T2 sequence (P11362 478-767 limits assumed): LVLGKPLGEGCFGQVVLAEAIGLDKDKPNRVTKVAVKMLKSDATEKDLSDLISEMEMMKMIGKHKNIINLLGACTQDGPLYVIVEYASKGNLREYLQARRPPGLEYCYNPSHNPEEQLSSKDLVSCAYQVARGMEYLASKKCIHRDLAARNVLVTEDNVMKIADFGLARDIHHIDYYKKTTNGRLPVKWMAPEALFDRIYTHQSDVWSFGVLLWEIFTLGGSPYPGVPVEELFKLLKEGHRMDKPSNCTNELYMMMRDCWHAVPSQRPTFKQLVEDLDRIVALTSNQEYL
The assay is described as follows: FGF receptor tyrosine kinase assay. Format: biochemical. The settings on record: for IC50: read-out: Inhibition of Protein Tyrosine Kinases, FGF, IC50. The procedure, abridged:
as §1

Assay [3] addresses T3, Human EGF receptor tyrosine kinase (Homo sapiens, UniProt P00533).
T3 construct: isolated from A431 epidermoid carcinoma cells; endogenous in cells; host or cells: A431 epidermoid carcinoma cells (Triton lysate, wheat germ agglutinin eluate)
As to the kind of experiment: EGF receptor tyrosine kinase assay. The note with it: for IC50: read-out: Inhibition of Protein Tyrosine Kinases, EGF, IC50; for inhibition at 50 µM: read-out: Inhibition of Protein Tyrosine Kinases, EGF, % Inhibition. Format: biochemical. On the procedure:
Purification of Epidermal Growth Factor Receptor Tyrosine Kinase
Human EGF receptor tyrosine kinase was isolated from A431 epidermoid carcinoma cells by the following methods. Cells were grown in roller bottles in 50% Delbuco's Modified Eagle and 50% HAM F-12 nutrient media (Gibco) containing 10% fetal calf serum. Approximately 10^9 cells were lysed in two volumes of buffer containing 20 mM 2-(4N-[2-hydroxyethyl]piperazin-1-yl)ethanesulfonic acid, pH 7.4, 5 mM ethylene glycol bis(2-aminoethyl ether)N,N,N',N'-tetraacetic acid, 1% Triton X-100, 10% glycerol, 0.1 mM sodium orthovanadate, 5 mM sodium fluoride, 4 mM pyrophosphate, 4 mM benzamide, 1 mM dithiothreitol, 80 μg/mL aprotinin, 40 μg/mL leupeptin, and 1 mM phenylmethylsulfonyl fluoride. After centrifugation at 25,000×g for 10 minutes, the supernatant was equilibrated for 2 hours at 4° C. with 10 mL of wheat germ agglutinin sepharose that was previously equilibrated with 50 mM Hepes, 10% glycerol, 0.1% Triton X-100 and 150 mM NaCl, pH 7.5, (equilibration buffer). Contaminating proteins were washed from the resin with 1M NaCl in equilibration buffer, and the enzyme was eluted with 0.5M N-acetyl-1-D-glucosamine in equilibration buffer.
Determination of IC50 Values
The reaction was terminated by the addition of 2 mL of 75 mM phosphoric acid and passed through a 2.5-cm phosphocellulose filter disc to bind the peptide. The filter was washed five times with 75 mM phosphoric acid and placed in a vial along with 5 mL of scintillation fluid (Ready gel Beckman).

For assay [4], the system named is V-src kinase. As to the kind of experiment: V-src kinase assay. The class given is biochemical. The note with it: at 50 μM. On the procedure: V-src and C-src Kinase Assays
V-src or C-src kinase is purified from baculovirus infected insect cell lysates using an antipeptide monoclonal antibody directed against the N-terminal 2-17 amino acids. The antibody, covalently linked to 0.65-μm latex beads, is added to a suspension of insect cell lysis buffer comprised of 150 mM NaCl, 50 mM Tris pH 7.5, 1 mM DTT, 1% NP-40, 2 mM EGTA, 1 mM sodium vanadate, 1 mM PMSF, 1 μg/mL each of leupeptin, pepstatin, and aprotinin. Insect cell lysate containing either the c-src or v-src protein is incubated with these beads for 3-4 hours at 4° C. with rotation. At the end of the lysate incubation, the beads are rinsed 3 times in lysis buffer, resuspended in lysis buffer containing 10% glycerol, and frozen. These latex beads are thawed, rinsed three times in assay buffer which is comprised of 40 mM tris pH 7.5, 5 mM MgCl2, and suspended in the same buffer. In a Millipore 96-well plate with a 0.65 μm polyvinylidine membrane bottom are added the reaction components: 10-μL v-src or c-src beads, 10 μL of 2.5 mg/mL poly GluTyr substrate, 5 μM ATP containing 0.2 μCi labeled ^32 P-ATP, 5μL DMSO containing inhibitors or as a solvent control, and buffer to make the final volume 125 μL. The reaction is started at room temperature by addition of the ATP and quenched 10 minutes later by the addition of 125 μL of 30% TCA, 0.1M sodium pyrophosphate for 5 minutes on ice. The plate is then filtered and the wells washed with two 250-μL aliquots of 15% TCA, 0.1M pyrophosphate. The filters are punched, counted in a liquid scintillation counter, and the data examined for inhibitory activity in comparison to a known inhibitor such as erbstatin. The method is described more fully in J. Med. Chem., 37:598-609 (1994).

Assay [5] addresses T4, C-src kinase (Homo sapiens, UniProt P12931).
T4 construct: made in house; host or cells: baculovirus-infected insect cells
The assay is described as follows: C-src kinase assay. The settings on record: for IC50: read-out: Inhibition of Protein Tyrosine Kinases, C-src, IC50; for inhibition at 50 µM: read-out: Inhibition of Protein Tyrosine Kinases, C-src, % Inhibition. The class given is biochemical. The procedure, abridged:
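Baculovirus-expressed c-src immunopurified on antibody-coated latex beads, assayed in 40 mM Tris pH 7.5, 5 mM MgCl2 with poly GluTyr substrate and 5 μM ATP plus 32P-ATP. Reaction 10 min at room temperature, TCA-quenched, filtered; incorporated label counted by scintillation.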

Assay [6] relates to PDGF receptor. The assay is described as follows: PDGF receptor autophosphorylation in RASMC. The class given is cell-based, rat. The note with it: PDGF-BB 30 ng/mL, read-out: Inhibition of PDGF Stimulated Receptor Auto Phosphorylation (IC50).
Procedure: Rat aorta smooth muscle cells (RASMC) were isolated from the thoracic aorta of rats and explanted according to the method of Ross, J. Cell. […] Cells were grown in Dulbecco's modified Eagle's medium (DMEM, Gibco) containing 10% fetal calf serum (FBS, Hyclone, Logan, Utah), 1% glutamine (Gibco) and 1% penicillin/streptomycin (Gibco). Cells were identified as smooth muscle cells by their "hill and valley" growth pattern and by fluorescent staining with a monoclonal antibody specific for SMC μ-actin (Sigma). RASMC were used between passages 5 and 20 for all experiments. Test compounds were prepared in dimethylsulfoxide (DMSO) in order to achieve consistency in the vehicle and to ensure compound solubility. Appropriate DMSO controls were simultaneously evaluated with the test compounds.
PDGF Receptor Autophosphorylation
RASMC were grown to confluency in 100 mm dishes. Growth medium was removed and replaced with serum-free medium and cells were incubated at 37° C. for an additional 24 hours. Test compounds were then added directly to the medium and cells incubated for an additional 2 hours. After 2 hours, PDGF-BB was added at a final concentration of 30 ng/mL for 5 minutes at 37° C. to stimulated autophosphorylation of the PDGF receptor. Following growth factor treatment, the medium was removed, and cells were washed with cold phosphate-buffered saline and immediately lysed with 1 mL of lysis buffer (50 mM HEPES[pH 7.5], 150 mM NaCl, 10% glycerol, 1% Triton X-100, 1 mM EDTA, 1 mMEGTA, 50 mM NaF, 1 mM sodium orthovanadate, 30 mM p-nitrophenyl phosphate, 10 mM sodium pyrophosphate, 1 mM phenylmethyl sulfonyl fluoride, 10 μg/mL aprotinin, and 10 μg/mL leupeptin). Lysates were centrifuged at 10,000×g for 10 minutes. […] Following the incubation, protein-A-sepharose beads were added for 2 hours with continuous mixing, and immune complexes bound to the beads washed 4 times with 1 mL lysis wash buffer. Immune complexes were solubilized in 30 μL of Laemmli sample buffer and electrophoresed in 4-20% SDS polyacrylamide gels. Following electrophoresis, separated proteins were transferred to nitrocellulose and immunoblotted with anti-phosphotyrosine antiserum. […] IC50 values were generated from the densitometric data.

T1 sequence (P05622 599-961 limits assumed): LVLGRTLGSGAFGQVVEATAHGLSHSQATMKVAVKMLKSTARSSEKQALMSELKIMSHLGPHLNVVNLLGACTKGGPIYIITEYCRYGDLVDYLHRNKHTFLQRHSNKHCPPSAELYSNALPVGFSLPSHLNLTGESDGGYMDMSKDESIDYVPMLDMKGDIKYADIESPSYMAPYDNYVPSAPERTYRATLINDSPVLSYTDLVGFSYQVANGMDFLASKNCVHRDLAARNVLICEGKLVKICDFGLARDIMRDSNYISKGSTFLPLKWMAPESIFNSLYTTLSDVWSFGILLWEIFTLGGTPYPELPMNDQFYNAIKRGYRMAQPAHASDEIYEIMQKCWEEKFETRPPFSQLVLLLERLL

The IC50 is the concentration that inhibits the measured activity by half. On to `Cc1ccccc1-c1cc2cnc(N)nc2nc1NC(=O)NC(C)(C)C` [Example 5, 1-[2-Amino-6-o-tolyl-pyrido[2,3-d]pyrimidin-7-yl]-3-tert-butylurea], for which the IC50 in assay [1] stood at 466 nM; in assay [2], 1400 nM; in assay [3], 928 nM; in assay [5], 407 nM. Moreover, the “Inhibition of Protein Tyrosine Kinases, V-src, % Inhibition” value (“Inhibition … V-src, % Inhibition” for short) in assay [4] was 23.3%.

The term inhibition denotes how much of the control response was suppressed. For the compound `CCNC(=O)Nc1nc2nc(N)ncc2cc1-c1c(Cl)cccc1Cl` [Example 22, 1-[2-Amino-6-(2,6-dichlorophenyl)-pyrido[2,3-d]pyrimidin-7-yl]-3-ethylurea], the IC50 is 1300 nM in assay [1], 128 nM in assay [2], 77 nM in assay [5] and 3730 nM in assay [6]. Besides, the inhibition at 50 µM in assay [3] (at 50 μM) came out at 90.4%. Moreover, the “Inhibition … V-src, % Inhibition” value in assay [4] came out at 46.9%.

On to “1-[2-Amino-6-(2,6-dichlorophenyl)-pyrido[2,3-d]pyrimidin-7-yl]-3-(3-morpholin-4-yl-propyl)-thiourea [Example 23]”, for which the values for the IC50 in assay [1], in assay [2] and in assay [5] were 4510 nM, 291 nM and 613 nM, respectively. Besides, the “Inhibition of Protein Tyrosine Kinases, EGF, % Inhibition” value in assay [3] (at 50 μM) came to 104.8%. Besides, in assay [4], the “Inhibition … V-src, % Inhibition” value came to 10.2%.

Turning to `CC(C)(C)NC(=O)Nc1ncc2cc(-c3c(Cl)cccc3Cl)c(NC(=O)NC(C)(C)C)nc2n1` [Example 2, 1-tert-Butyl-3-[7-(3-tert-butylureido)-6-(2,6-dichlorophenyl)-pyrido[2,3-d]pyrimidin-2-yl]urea], the figures for the IC50 in assay [1], in assay [2] and in assay [5] were 10200 nM, 1600 nM and 19500 nM, respectively. Further, the inhibition at 50 µM in assay [3] (at 50 μM) was determined as 52.3%.

On to `Cc1ccccc1-c1cc2cnc(N)cc2nc1N` [Example 16, 3-o-Tolyl-[1,6]naphthyridine-2,7-diamine], for which the IC50 in assay [1] was 10700 nM; in assay [2] it was 9210 nM; in assay [3], 7080 nM; in assay [5] it was 1380 nM. For the same compound, the “Inhibition … V-src, % Inhibition” value in assay [4] is recorded as 10.3%.

On to `CCN(CC)CCCNc1ncc2cc(-c3c(Cl)cccc3Cl)c(NC(=O)NC(C)(C)C)nc2n1` [Example 21, 1-tert-Butyl-3-[6-(2,6-dichlorophenyl)-2-(3-diethylamino-propylamino)-pyrido[2,3-d]pyrimidin-7-yl]-urea], for which the IC50 in assay [1] was 660 nM; in assay [2], 82.4 nM; in assay [3] it was 6970 nM; in assay [5], 73 nM; in assay [6], 1800 nM. The “Inhibition … V-src, % Inhibition” value in assay [4] is 49.4%.

For the compound `Cc1cccc(C)c1-c1cc2cnc(N)nc2nc1NC(=O)NC(C)(C)C` [Example 6, 1-[2-Amino-6-(2,6-dimethylphenyl)-pyrido[2,3-d]pyrimidin-7-yl]-3-tert-butylurea], the values for the IC50 in assay [2], in assay [3] and in assay [6] were 397 nM, 457 nM and 350 nM, respectively. The “Inhibition … V-src, % Inhibition” value in assay [4] was determined as 39.8%.

As to `CCCCNC(=O)Nc1ncc2cc(-c3c(Cl)cccc3Cl)c(NC(=O)NCCCC)nc2n1` [Example 25, 1-Butyl-3-[7-(3-butyl-ureido)-6-(2,6-dichlorophenyl)-pyrido[2,3-d]pyrimidin-2-yl]-urea], the IC50 in assay [1] was 6040 nM; in assay [2], 11800 nM; in assay [5], 207 nM. Also, the inhibition at 50 µM in assay [3] (at 50 μM) was 57.5%. Further, the “Inhibition … V-src, % Inhibition” value in assay [4] is 0.0%.

`Nc1cc2nc(N)c(-c3ccccc3Cl)cc2cn1` [Example 17, 3-(2-Chlorophenyl)-[1,6]naphthyridine-2,7-diamine]: the IC50 in assay [1] is 27000 nM; in assay [2], 4500 nM; in assay [3], 7220 nM; in assay [5], 2760 nM. Besides, the “Inhibition … V-src, % Inhibition” value in assay [4] is recorded as 5.3%.

For the compound `CN(C)C=Nc1ncc2cc(-c3c(Cl)cccc3Cl)c(NC(=O)NC(C)(C)C)nc2n1` [Example 79, N'-[7-(3-tert-Butylureido)-6-(2,6-dichlorophenyl)-pyrido[2,3-d]pyrimidin-2-yl]-N,N-dimethylformamidine], the results for the IC50 in assay [1] and in assay [2] were 17800 nM and 8090 nM, respectively. The inhibition at 50 µM in assay [3] (at 50 μM) stood at 60.9%.

In the case of `CC(=O)Nc1ncc2cc(-c3c(Cl)cccc3Cl)c(NC(C)=O)nc2n1` [Example 7, N-[2-Acetylamino-6-(2,6-dichlorophenyl)-pyrido[2,3-d]pyrimidin-7-yl]-acetamide], the results for the inhibition at 50 µM in assay [1] and in assay [3] (at 50 μM) were 33.5% and 25.1%, respectively. For the same compound, the IC50 came to 17900 nM in assay [2] and 2300 nM in assay [5]. For the same compound, in assay [4], the “Inhibition … V-src, % Inhibition” value amounted to 7.6%.

Take `Nc1ncc2cc(-c3c(Cl)cccc3Cl)c(NC3=NCCO3)nc2n1` [Example 24, 2-[2-Amino-6-(2,6-dichlorophenyl)-pyrido[2,3-d]pyrimidin-7-yl]-amino-4,5-dihydro-oxazole]: the results for the IC50 in assay [1], in assay [2] and in assay [5] were 11400 nM, 7290 nM and 214 nM, respectively. In assay [3] (at 50 μM), the inhibition at 50 µM is 58.3%.

As for `CC(C)(C)NC(=O)Nc1nc2nc(N)ncc2cc1-c1c(Br)cccc1Br` [Example 88, 1-[2-Amino-6-(2,6-dibromo-phenyl)-pyrido[2,3-d]pyrimidin-7-yl]-3-tert-butyl-urea], the results for the IC50 in assay [1], in assay [2] and in assay [5] were 711 nM, 148 nM and 213 nM, respectively. In addition, in assay [3] (at 50 μM), the inhibition at 50 µM is 34.4%.

Take `Cc1ccccc1-c1cc2cnc(NC(=O)NC(C)(C)C)nc2nc1NC(=O)NC(C)(C)C` [Example 4, 1-tert-Butyl-3-[7-(3-tert-butylureido)-6-o-tolyl-pyrido[2,3-d]pyrimidin-2-yl]urea]: the inhibition at 50 µM in assay [1] was 31.9%; in assay [2] (at 50 μM, read-out: Inhibition of Protein Tyrosine Kinases, FGF, % Inhibition), 21.5%; in assay [3] (at 50 μM), 36.6%; in assay [5], 33.6%. Also, in assay [4], the “Inhibition … V-src, % Inhibition” value is 3.1%.

For the compound `CNc1ncc2cc(-c3ccccc3)c(NC)nc2n1` [Example 19, N^2,N^7 -Dimethyl-6-phenyl-pyrido[2,3-d]pyrimidine-2,7-diamine], the inhibition at 50 µM is 47.7% in assay [1], 26.1% in assay [3] (at 50 μM) and 52.8% in assay [5]. Besides, in assay [2], the IC50 turned out to be 16900 nM. In addition, in assay [4], the “Inhibition … V-src, % Inhibition” value is 5.2%.
